According to PubChem BioAssay (NCI):
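Results reflect a 48-hour exposure of cells in 96-well plates to compound at five concentrations. TGI denotes the concentration required for complete inhibition of growth.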

How the values were obtained:
Test in all cases: inhibition of tumour cell growth, NCI panel, 48 h
[1] = system: MDA-N
[2] = system: SK-MEL-5 melanoma
[3] = system: NCI-H23 lung
[4] = system: OVCAR-4 ovarian
[5] = system: IGROV1 ovarian
[6] = system: LOX IMVI melanoma
[7] = system: SNB-19 CNS
[8] = system: HT29 colon
[9] = system: MDA-MB-231 breast
[10] = system: SF-539 CNS

Compound	TGI [1]	TGI [2]	TGI [3]	TGI [4]	TGI [5]	TGI [6]	TGI [7]	TGI [8]	TGI [9]	TGI [10]
CN(C)c1cccc(NC2=NCCO2)c1	32.8 µM	> 100 µM	85.3 µM	> 100 µM	> 100 µM	> 100 µM	> 100 µM	47.4 µM	> 100 µM	> 100 µM
CN(C)/N=C1\CC(c2ccccc2)C(C#N)(C#N)C1(C#N)C#N (stereo not given)	40 µM	24.4 µM	53.1 µM	> 100 µM	45.3 µM	79.2 µM	54.1 µM	50.5 µM	36.9 µM	> 100 µM
COc1ccc(/C=C/C2=NN(c3cccc(S(=O)(=O)O)c3)C3(C2)SCC(=O)N3c2nc3ccccc3s2)cc1 (stereo not given)	> 100 µM	> 100 µM	> 100 µM	> 100 µM	> 100 µM	> 100 µM	> 100 µM	> 100 µM	> 100 µM	> 100 µM
C[Si](C)(C)C1=C([Si](C)(C)C)C(Cl)(Cl)C1=O	5.39 µM	5.89 µM	18.4 µM	12.5 µM	16.1 µM	3.51 µM	36.5 µM	13.7 µM	7.85 µM	12.7 µM
c1cnc(N2CCN(Cc3c[nH]c4ccccc34)CC2)nc1	> 100 µM	> 100 µM	> 100 µM	> 100 µM	> 100 µM	> 100 µM	> 100 µM	> 100 µM	> 100 µM	67 µM
C[Si](C)(c1ccccc1)[C@H]1CCCC=C1CCNC1c2ccccc2CCc2ccccc21	> 100 µM	> 100 µM	> 100 µM	> 100 µM	> 100 µM	> 100 µM	> 100 µM	> 100 µM	> 100 µM	> 100 µM
COc1ccc(-n2sc3ncccc3c2=O)cc1	40.7 µM	44.6 µM	36.8 µM	> 100 µM	61.2 µM	> 100 µM	> 100 µM	43 µM	45.1 µM	37.7 µM
CC(C)(C)N(Cc1ccc2c(c1)OCO2)C(=O)/C=C\Sc1ccccc1	> 100 µM	> 100 µM	> 100 µM	> 100 µM	> 100 µM	> 100 µM	> 100 µM	> 100 µM	> 100 µM	> 100 µM
CSC1NC(c2ccc(Cl)cc2)=C(C#N)C(=O)N1C1OCC(OC(C)=O)C(OC(C)=O)C1OC(C)=O (stereo not given)	> 100 µM	> 100 µM	> 100 µM	> 100 µM	> 100 µM	> 100 µM	> 100 µM	> 100 µM	> 100 µM	> 100 µM
COC(=O)c1ccc(Nc2nc3nc[nH]c3c(=O)[nH]2)cc1	> 100 µM	> 100 µM	> 100 µM	> 100 µM	> 100 µM	> 100 µM	> 100 µM	> 100 µM	> 100 µM	> 100 µM
CCc1ccccc1NNc1cc(=O)[nH]c(=O)[nH]1	33.6 µM	32.4 µM	> 100 µM	38 µM	37.8 µM	29.4 µM	43.5 µM	39.3 µM	32.3 µM	52.2 µM
Fc1cccc(F)c1C1SCc2nc3ccc(Cl)cc3n21 (stereo not given)	> 100 µM	> 100 µM	> 100 µM	> 100 µM	> 100 µM	> 100 µM	> 100 µM	> 100 µM	> 100 µM	> 100 µM
O=C1C(CN2CCOCC2)CCCC1CN1CCOCC1 (stereo not given)	16.1 µM	23.9 µM	16.9 µM	5.44 µM	17.3 µM	8.98 µM	45.7 µM	4.16 µM	19.8 µM	7.45 µM
C[N+]1(CCN[N+]2(C)CCCCC2)CCc2ccccc2C1 (stereo not given)	> 100 µM	> 100 µM	> 100 µM	> 100 µM	> 100 µM	> 100 µM	> 100 µM	> 100 µM	> 100 µM	> 100 µM
CCOc1cc(NC(C)=O)ccc1C(=O)NN1C(=O)CSC1c1ccccc1 (stereo not given)	> 100 µM	> 100 µM	> 100 µM	> 100 µM	> 100 µM	> 100 µM	> 100 µM	> 100 µM	> 100 µM	> 100 µM
O=[N+]([O-])c1ccc(O)c(/C=N/NC(=S)N2CCCCC2)c1	60.1 µM	21 µM	32.9 µM	50.7 µM	8.76 µM	17.1 µM	> 53.6 µM	15 µM	52.2 µM	> 100 µM
